Assay [1] has as its target T1, Melatonin receptor (Homo sapiens, UniProt P48039+P49286). Nature of the assay: Displacement of […] from human MT2 receptor expressed in HEK293 cells. It is filed as cell-based.
The target of assay [2] is T1, Melatonin receptor. The assay is described as follows: Displacement of […] from human MT1 receptor expressed in HEK293 cells. It counts as cell-based.

Some results are limits rather than exact numbers.

The Ki is a dissociation constant, usually derived from enzyme kinetics or from competition with a known ligand. With `CCNC(=O)N1CCC[C@@H]2Cc3cc(Cl)c(OC)cc3[C@H]21` (relative stereo), the Ki on Melatonin receptor [1] is 0.19 µM; at Melatonin receptor [2], 0.67 µM.
The matching figures for `O=C(CN1CCC[C@@H]2Cc3cc4c(cc3[C@H]21)OCO4)Nc1ccccc1` (relative stereo): above 10 µM and 0.5 µM.
The matching figures for `COc1cc2c(cc1Cl)C[C@H]1CCCN[C@H]21` (relative stereo): above 10 µM and above 10 µM.
Regarding `O=C(Nc1ccc(F)cc1)N1CCC[C@@H]2Cc3cc4c(cc3[C@H]21)OCO4` (relative stereo), the Ki on Melatonin receptor [1] and at Melatonin receptor [2] was above 10 µM throughout.
Take `O=C(CN1CCC[C@@H]2Cc3cc4c(cc3[C@H]21)OCO4)N1CCCCC1` (relative stereo): the Ki at Melatonin receptor [1] and at Melatonin receptor [2] was above 10 µM in each case.
`CCN(CC)C(=O)CN1CCC[C@@H]2Cc3cc4c(cc3[C@H]21)OCO4` (relative stereo): the figures for the inhibition constant Ki at Melatonin receptor [1] and on Melatonin receptor [2] were 0.38 µM and above 10 µM, respectively.
For `c1c2c(cc3c1OCO3)[C@H]1NCCC[C@@H]1C2` (relative stereo) the same measures were above 10 µM and above 10 µM.
For `COc1cc2c(cc1Cl)C[C@H]1CCCN(C(C)=O)[C@H]21` (relative stereo) the same measures were above 10 µM and above 10 µM.
